The values that follow come from patent publication US11020381B2, “Biaryloxy derivatives as TTX-S blockers” (RaQualia Pharma Inc., priority 2017, dated 2021).

As usually defined, the IC50 is the midpoint of a concentration-inhibition curve.

Experiment [1] addresses T1, Nav1.7 (Homo sapiens (Human), UniProt Q15858). Particulars: data cited from the table at page 103 in WO2012/007868; read-out: IC50 against Nav1.7 channel; cited from earlier work.
In experiment [2] the target is T1, Nav1.7. Briefly: EFS-FRET assay. Particulars: CHO cells expressing human Nav1.7 channels; read-out: IC50 against Nav1.7. In kind it is cell-based. As for the experimental part:
This screen is used to determine the effects of compounds on human Nav1.7 channels, utilizing electrical field stimulation (EFS) system in 96-well plate format on FDSS (Hamamatsu Photonics) platform. The changes of membrane potential are monitored with FRET dye pair, DiSBAC2(3) and PTS 18.
CHO (Chinese hamster ovary) cells expressing human Nav1.7 channels are grown in T225 flasks, in a 5% CO2 humidified incubator to about 80% confluence. Media composition consists of HAM/F12 with Glutamax I, 10% FCS, 100 units/mL penicillin and 100 microgram/mL hygromycin.
Seed each cell lines (1×10^5 cells/well) into 96-well plates prior to experimentation.
Incubate at 37° C. in 5% CO2 for 24 hours.
Wash each well with assay buffer (140 mM NaCl, 4.5 mM KCl, 10 mM D-Glucose, 2 mM CaCl2, 1 mM MgCl2, 10 mM HEPES, pH 7.4 adjusted with NaOH) twice.
Add 1st loading solution containing 10 microM PTS 18 and 0.06% Pluronic F-127 in assay buffer.
Incubate the plate at rt in dark for 1 hour.
Remove 1st loading solution and add 2nd loading solution containing 12.5 microM DiSBAC2(3), 1.25 mM Xylene Fast Yellow and 0.0075% Pluronic F-127 in assay buffer.
Place the plate under the dark at rt for 25 minutes.
Add compound solutions into the assay plate.
Set the assay plate in FDSS and place an EFS device on the plate.
Measure EFS-induced fluorescent response by FDSS.
The data are analyzed and reported as normalized ratios of intensities measured at […]. The process of calculating these ratios is performed as follows:
(§1) This analysis is performed using a computerized specific program designed for FDSS generated data. Fluorescence ratio values are plotted using XLfit to determine an IC50 value for each compound.

Experiment [3] concerns the target T2, Nav1.5 (Homo sapiens (Human), UniProt Q14524). Nature of the experiment: Automated electrophysiology assay (Qpatch HTX). The format is cell-based. Particulars: Test 2 pulse, read-out: Inactivated IC50 against Nav1.5. As for the experimental part: Automated Electrophysiology Assay
Automated patch clamp recordings are conducted for evaluation of inhibitory effect against Nav1.5 with the Qpatch HTX system according the manufacturer's specifications (Sophion).
The extracellular and intercellular solutions consist of the following composition:
Extracellular recording solution (mM): 137 NaCl, 4 KCl, 1.8 CaCl2, 1 MgCl2, 10 HEPES, and 10 Glucose, pH 7.4 adjusted with NaOH
Intercellular solution (mM): 135 CsF, 10 NaCl, 5 EGTA, and 10 HEPES, pH 7.3 adjusted with CsOH.
To evaluate of inhibitory effects of test compounds against Nav1.5, the cells are clamped at −110 mV. […]
Peak currents evoked by Testl and Test 2 pulses are sampled with Qpatch assay software (Sophion). Averaged peak currents under vehicle or test compounds are calculated from 3 data points at end of each condition. Inhibitory effect (% inhibition) of test compound is calculated as bellow; % inhibition=[1−Averaged peak current (Compound)/Averaged peak current (Vehicle)]×100 [Math.4]
Inhibitory effects (% inhibition) of each concentration are measured from at least 2 cells. Averaged inhibitory effects are plotted against test concentration and IC50 values at Test 1 (Closed IC50) or Test 2 (Inactivated IC50) are calculated with Hill equation, respectively. […]

The target in experiment [4] is T1, Nav1.7. Briefly: Affinity to resting state (Kr) and inactivated state (Ki), manual patch clamp. In kind it is cell-based. Particulars: read-out: Ki (inactivated state) against Nav1.7. An excerpt: Affinity to Resting State (Kr) and Inactivated State (Ki) of Test Compound
The normalized steady-state inactivation curve is constructed using 2 sec (for vehicle) or 60 sec (for drugs) conditioning pulse to different potentials followed immediately by the test pulse to −10 mV. Peak currents are plotted as fraction of the maximum current at the conditioning potentials ranging from −120 mV to 0 mV for Nav1.7. V1/2 and k values are estimated from Boltzmann fits. The affinity of test compound to resting state of Na channels (Kresting or Kr) is assessed by depolarizing test pulse from a negative holding potential of −130 mV, where virtually all channels are in the resting state. Kr value is calculated by a conventional 1:1 binding model: Kresting(Kr)={[drug]Imax,drug/(Imax,control−Imax,drug)} [Math.6] where Kresting (=Kr) is a dissociation constant for the resting state and [drug] is compound concentration. Imax,control and Imax,drug are peak currents in the absence and presence of compound, respectively.
Interaction of the compound with the channel on inactivated state is evaluated by the following equation: Kinact(Ki)={[drug]/((1+[drug]/Kr)*exp(−ΔV/k)−1)} [Math.7] where Kinact (=Ki) is a dissociation constant for the inactivated state. ΔV is the compound-induced voltage shift of half maximal voltage of Boltzmann curve and k is the slop factor on presense of compound.
For orientation: The patch-clamp technique gives a direct electrical read-out from membranes.

Experiment [5] has as its target T2, Nav1.5. Nature of the experiment: FRET assay. The format is cell-based. Particulars: HEK293 cells expressing human Nav1.5 channels; read-out: activity (IC50) against Nav1.5. The method, then: This screen is used to determine the effects of compounds on human Nav1.5 channels, utilizing the cell imaging technology by Hamamatsu Photonics's Functional Drug Screening System (FDSS). The changes of membrane potential are monitored with fluorescent membrane potential dye pair, DiSBAC2(3) and CC2-DMPE, using FRET technology.
HEK293 cells expressing human Nav1.5 channels are grown in T225 flasks, in a 5% CO2 humidified incubator to about 80% confluence. HEK293 cells expressing human Nav1.5 channels are maintained in Dulbecco's Modified Eagle Medium (high glucose) supplemented with 10% fetal calf serum (FCS), 100 units/mL Penicillin, 100 microgram/mL Streptomycin and 500 microgram/mL Geneticine. […]
The data is analyzed and reported as normalized ratios of intensities measured in the 465 nm and 575 nm channels. […]
“FI465B”=the mean of fluorescence intensity as baseline (before Na^+ ligand addition) at 465 nm
“FI575B”=the mean of fluorescence intensity as baseline (before Na^+ ligand addition) at 575 nm
“FI465Max” maximum fluorescence intensity at 465 nm after Na^+ stimulation
“FI575Min”=minimum fluorescence intensity at 575 nm after Na^+ stimulation
as §1

Experiment [6] concerns the target T1, Nav1.7. Briefly: Manual patch clamp assay, two pulse protocol. In kind it is cell-based. As for the experimental part: Manual patch clamp recordings are conducted at RT using the voltage-clamp amplifier (Axon Instruments or HEKA electronik). Electrodes are pulled with P-97 electrode puller (Sutter Instrument). The electrode resistances are 1-3 MOhm when intercellular solution is filled. Currents are lowpass filtered between 2-5 kHz and digitally sampled at 10 kHz.
The extracellular and intercellular solutions for human Nav1.7 and NaV1.5 consist of the following composition:
Extracellular recording solution (mM): 135 NaCl, 5 KCl, 2 CaCl2, 1 MgCl2, 10 HEPES, and 10 Glucose, pH 7.4 adjusted with NaOH; and
Intercellular solution (mM): 120 CsF, 15 NaCl, 10 EGTA, and 10 HEPES, pH 7.2 adjusted with CsOH.
After whole-cell configuration is achieved, cell is monitored at least 10 minutes to allow cell dialysis with pipette solution. To evaluate of inhibitory effects of test compounds, the cells are clamped at −120 or −130 mV. […]
Peak currents evoked by Test 1 and Test 2 pulses are sampled with Clampex (Axon Instruments) or Pulse+Pulse Fit (HEKA). Averaged peak currents under vehicle or test compounds are calculated from 3 data points at end of each condition. Inhibitory effect (% inhibition) of test compound is calculated as bellow; % inhibition=[1−Averaged peak current (Compound)/Averaged peak current (Vehicle)]×100 [Math.5] […]

“And” between values parts separate entries of the source, which are not always exact repeats. Equal entries are not always repeated. Where two headings read alike, the source gives them in different places.

T1 sequence (Q15858 whole entry): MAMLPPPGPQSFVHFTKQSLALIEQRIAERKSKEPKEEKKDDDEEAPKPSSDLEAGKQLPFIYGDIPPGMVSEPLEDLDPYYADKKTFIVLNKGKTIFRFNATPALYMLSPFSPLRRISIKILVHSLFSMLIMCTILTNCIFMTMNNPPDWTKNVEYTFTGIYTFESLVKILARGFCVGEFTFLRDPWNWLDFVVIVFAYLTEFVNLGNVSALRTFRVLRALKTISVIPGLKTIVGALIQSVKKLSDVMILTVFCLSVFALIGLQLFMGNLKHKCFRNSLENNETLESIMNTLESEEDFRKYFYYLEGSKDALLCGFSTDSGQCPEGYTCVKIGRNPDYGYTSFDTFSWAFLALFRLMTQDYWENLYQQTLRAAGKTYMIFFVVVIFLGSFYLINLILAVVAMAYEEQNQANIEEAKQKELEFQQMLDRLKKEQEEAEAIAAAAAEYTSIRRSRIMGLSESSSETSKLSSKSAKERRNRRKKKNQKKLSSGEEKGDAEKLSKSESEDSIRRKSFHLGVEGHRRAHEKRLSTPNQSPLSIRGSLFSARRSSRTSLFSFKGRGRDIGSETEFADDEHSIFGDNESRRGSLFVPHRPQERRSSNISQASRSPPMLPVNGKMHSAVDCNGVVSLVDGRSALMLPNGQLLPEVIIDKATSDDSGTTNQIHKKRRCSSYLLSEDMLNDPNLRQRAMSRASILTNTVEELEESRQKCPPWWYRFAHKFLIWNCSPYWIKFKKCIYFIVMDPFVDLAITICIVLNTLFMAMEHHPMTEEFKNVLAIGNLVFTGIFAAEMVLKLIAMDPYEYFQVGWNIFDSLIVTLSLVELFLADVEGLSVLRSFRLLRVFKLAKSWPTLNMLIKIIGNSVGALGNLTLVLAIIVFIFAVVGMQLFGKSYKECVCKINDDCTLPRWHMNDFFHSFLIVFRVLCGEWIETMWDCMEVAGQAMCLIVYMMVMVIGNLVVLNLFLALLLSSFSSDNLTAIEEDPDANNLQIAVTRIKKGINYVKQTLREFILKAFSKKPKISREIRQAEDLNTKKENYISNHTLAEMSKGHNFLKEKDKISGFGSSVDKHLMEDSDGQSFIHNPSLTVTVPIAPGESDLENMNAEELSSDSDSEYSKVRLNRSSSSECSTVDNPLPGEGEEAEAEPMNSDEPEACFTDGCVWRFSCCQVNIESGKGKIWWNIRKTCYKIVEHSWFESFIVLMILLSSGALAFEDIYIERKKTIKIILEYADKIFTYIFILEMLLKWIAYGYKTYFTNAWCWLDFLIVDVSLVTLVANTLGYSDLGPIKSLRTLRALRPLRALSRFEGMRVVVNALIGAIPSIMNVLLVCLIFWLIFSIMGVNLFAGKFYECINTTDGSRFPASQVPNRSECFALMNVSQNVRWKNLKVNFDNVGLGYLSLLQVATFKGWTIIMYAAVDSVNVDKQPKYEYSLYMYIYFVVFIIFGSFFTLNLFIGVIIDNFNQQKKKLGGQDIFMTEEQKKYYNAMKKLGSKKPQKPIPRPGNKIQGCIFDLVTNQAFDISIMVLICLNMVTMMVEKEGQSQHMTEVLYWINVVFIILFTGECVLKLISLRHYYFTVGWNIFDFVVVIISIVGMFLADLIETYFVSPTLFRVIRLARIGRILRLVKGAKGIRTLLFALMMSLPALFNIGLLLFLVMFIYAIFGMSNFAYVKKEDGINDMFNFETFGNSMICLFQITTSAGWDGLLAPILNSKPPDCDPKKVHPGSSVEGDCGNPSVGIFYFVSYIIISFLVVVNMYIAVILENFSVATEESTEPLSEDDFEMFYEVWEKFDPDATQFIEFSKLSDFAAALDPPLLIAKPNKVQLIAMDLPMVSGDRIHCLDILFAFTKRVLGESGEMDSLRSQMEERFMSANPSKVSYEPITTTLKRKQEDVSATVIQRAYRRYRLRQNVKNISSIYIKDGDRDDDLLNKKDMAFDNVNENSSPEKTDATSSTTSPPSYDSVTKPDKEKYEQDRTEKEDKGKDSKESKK
T2 sequence (Q14524 whole entry): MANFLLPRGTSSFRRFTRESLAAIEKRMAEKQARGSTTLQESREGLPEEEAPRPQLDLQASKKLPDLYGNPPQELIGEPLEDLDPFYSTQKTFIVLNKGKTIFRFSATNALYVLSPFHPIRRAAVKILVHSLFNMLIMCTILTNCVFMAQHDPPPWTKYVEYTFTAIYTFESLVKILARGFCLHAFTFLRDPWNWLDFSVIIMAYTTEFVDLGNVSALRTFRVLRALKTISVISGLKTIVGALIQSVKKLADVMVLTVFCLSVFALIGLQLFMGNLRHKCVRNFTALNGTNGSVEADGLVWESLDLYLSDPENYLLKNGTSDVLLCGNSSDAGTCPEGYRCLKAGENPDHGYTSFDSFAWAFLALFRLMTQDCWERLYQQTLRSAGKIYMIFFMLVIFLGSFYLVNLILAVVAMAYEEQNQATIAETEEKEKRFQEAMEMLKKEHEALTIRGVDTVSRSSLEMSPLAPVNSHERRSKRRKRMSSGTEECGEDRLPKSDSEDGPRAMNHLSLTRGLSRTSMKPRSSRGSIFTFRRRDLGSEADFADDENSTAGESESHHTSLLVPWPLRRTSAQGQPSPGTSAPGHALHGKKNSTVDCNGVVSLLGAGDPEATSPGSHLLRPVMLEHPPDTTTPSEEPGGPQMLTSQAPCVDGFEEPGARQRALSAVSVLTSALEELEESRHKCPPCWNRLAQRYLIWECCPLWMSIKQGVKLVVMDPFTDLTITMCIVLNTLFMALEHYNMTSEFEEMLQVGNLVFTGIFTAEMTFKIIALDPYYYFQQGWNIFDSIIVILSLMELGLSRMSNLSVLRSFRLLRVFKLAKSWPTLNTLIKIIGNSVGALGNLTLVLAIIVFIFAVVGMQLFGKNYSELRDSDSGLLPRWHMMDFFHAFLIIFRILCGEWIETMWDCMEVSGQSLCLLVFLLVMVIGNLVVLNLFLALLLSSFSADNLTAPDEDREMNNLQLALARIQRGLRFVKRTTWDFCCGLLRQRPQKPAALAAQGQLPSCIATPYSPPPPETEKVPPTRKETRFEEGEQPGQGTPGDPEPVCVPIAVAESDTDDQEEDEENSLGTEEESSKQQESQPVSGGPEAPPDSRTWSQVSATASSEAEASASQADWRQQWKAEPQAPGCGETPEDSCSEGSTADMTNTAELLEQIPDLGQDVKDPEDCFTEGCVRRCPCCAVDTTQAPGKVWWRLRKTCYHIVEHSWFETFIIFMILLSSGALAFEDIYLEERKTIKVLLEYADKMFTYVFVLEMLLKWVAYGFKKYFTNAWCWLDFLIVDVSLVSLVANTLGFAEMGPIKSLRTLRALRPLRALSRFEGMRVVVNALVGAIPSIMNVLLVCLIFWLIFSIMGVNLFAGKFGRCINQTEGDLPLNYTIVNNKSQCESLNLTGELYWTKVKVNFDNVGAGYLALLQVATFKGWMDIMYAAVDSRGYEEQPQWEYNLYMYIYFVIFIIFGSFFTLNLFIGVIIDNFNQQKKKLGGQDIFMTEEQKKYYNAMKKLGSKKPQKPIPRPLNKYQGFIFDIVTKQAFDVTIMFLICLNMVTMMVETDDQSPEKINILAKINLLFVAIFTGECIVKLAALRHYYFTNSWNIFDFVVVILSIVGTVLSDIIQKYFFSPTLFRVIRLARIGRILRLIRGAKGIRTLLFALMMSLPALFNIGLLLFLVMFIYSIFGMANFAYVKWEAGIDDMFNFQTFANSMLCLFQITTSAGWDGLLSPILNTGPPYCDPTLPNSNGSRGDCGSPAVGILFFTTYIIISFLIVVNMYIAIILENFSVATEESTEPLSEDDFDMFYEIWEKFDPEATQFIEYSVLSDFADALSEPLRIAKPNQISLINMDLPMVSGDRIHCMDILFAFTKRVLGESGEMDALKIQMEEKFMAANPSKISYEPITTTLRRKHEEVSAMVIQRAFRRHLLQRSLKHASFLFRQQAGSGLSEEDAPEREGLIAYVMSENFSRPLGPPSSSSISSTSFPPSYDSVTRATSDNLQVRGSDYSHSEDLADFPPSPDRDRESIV

In the case of `CS(=O)(=O)NC(=O)c1ccc(COc2cccc(C3CCNCC3)c2)cc1` [WO2012/007868 Example 35], at Nav1.7 [1], the IC50 was greater than 3000 nM.

As to `CS(=O)(=O)NC(=O)c1ccc(COc2cccc(-c3cccnc3)c2)c(F)c1` [reference compound (B), reference compound], the IC50 at Nav1.7 [2] came out at 1300 nM. In the case of `CS(=O)(=O)NC(=O)c1cc(F)c(COc2cccc(-c3ccc(OCC4CC4)nc3)c2)cc1F` [Example 24, 4-((3-(6-(cyclopropylmethoxy)pyridin-3-yl)phenoxy)methyl)-2,5-difluoro-N-(methylsulfonyl)benzamide], the IC50 at Nav1.7 [2] worked out at 50 nM.

With `CS(=O)(=O)NC(=O)c1ccc(COc2cccc(-c3cccnc3)c2)cc1` [reference compound (A), reference compound], on Nav1.7 [2], the half-maximal inhibitory concentration (IC50) was greater than 3000 nM.

For the compound `CS(=O)(=O)NC(=O)c1ccc(COc2cccc(-c3cc(CC4CC4)on3)c2)c(F)c1` [Example 84, 4-((3-(5-(cyclopropylmethyl)isoxazol-3-yl)phenoxy)methyl)-3-fluoro-N-(methylsulfonyl)benzamide], the IC50 at Nav1.7 [2] was found to be 50 nM. Take `CS(=O)(=O)NC(=O)c1ccc(COc2cc(F)cc(-c3ccc(OCC4CC4)nc3)c2)cc1` [Example 30, 4-((3-(6-(cyclopropylmethoxy)pyridin-3-yl)-5-fluorophenoxy)methyl)-N-(methylsulfonyl)benzamide]: the IC50 at Nav1.5 [3] is greater than 30000 nM. With `Cc1c(OCc2cc(F)c(C(=O)NS(C)(=O)=O)cc2F)cccc1-n1cccn1` [WO2012/007868 Example 102], the IC50 at Nav1.7 [1] is greater than 3000 nM. As for `CS(=O)(=O)NC(=O)c1ccc(COc2cccc(-c3ccc(OCC4CC4)nc3)c2)cc1` [Example 2, 4-((3-(6-(cyclopropylmethoxy)pyridin-3-yl)phenoxy)methyl)-N-(methylsulfonyl)benzamide], at Nav1.7 [4], the Ki was 22 nM. Besides, the IC50 on Nav1.5 [5] was greater than 30000 nM; at Nav1.7 [2] it was 84 nM and 80 nM. At Nav1.7 [6], the “selectivity for Nav1.7 over Nav1.5” value amounted to 75 fold. In the case of `CS(=O)(=O)NC(=O)c1cc(F)c(COc2cccc(-c3cccnc3)c2)cc1F` [reference compound (C), reference compound], the IC50 at Nav1.7 [2] was 600 nM.

Turning to `CS(=O)(=O)NC(=O)c1ccc(COc2cccc(-c3ccc(OCC4CC4)nc3)c2)c(F)c1` [Example 14, 4-((3-(6-(cyclopropylmethoxy)pyridin-3-yl)phenoxy)methyl)-3-fluoro-N-(methylsulfonyl)benzamide], the IC50 at Nav1.7 [2] came out at 50 nM.
